In article PMC7177633, “Effective Cellular Transport of Ortho-Halogenated Sulfonamide Derivatives of Metformin Is Related to Improved Antiproliferative Activity and Apoptosis Induction in MCF-7 Cells” (International Journal of Molecular Sciences, 2020):
Where two headings read alike, the source gives them in different places.

How the values were obtained:
MCF-7 cells [1] = assay: Intracellular GSH and GSSG, MCF-7; type: cell-based, human; settings: MCF-7, 24 h, reference agents: Ascorbic acid 200 µM, AAPH 10 mM
Description: (§1) The quantitative determination of glutathione and glutathione disulfide was performed using the enzymatic recycling method according to the protocol of Rahman. The cells were seeded at a density of 2 × 10^5 per well in a 6-well plate and cultured for 48 h. Then, the cells were treated with tested compounds 1, 4 and 7 at their respective ¼ and ½ IC50 values for MCF-7 and MDA-MB-231 cells. Additionally, controls with pure medium, AAPH (2,2′-Azobis(2-methylpropionamidine) dihydro-chloride, Sigma Aldrich, St. Louis, MO, USA) and ascorbic acid (Polish Chemical Reagents, Poland) were performed. The cells were incubated with compounds for another 24 h, then washed twice with 2 mL of cold, Ca^2+-/Mg^2+-free PBS (Biomed Lublin, Lublin, Poland). The cells were harvested using 1-mL accutase (Sigma Aldrich, St. Louis, MO, USA), and the wells were washed with 1 mL of cold growth medium. The cells were transferred to prechilled 2.0-mL Eppendorf tubes and centrifuged at 1000× g for 5 min at 4 °C. The supernatant was discarded, the pellets were resuspended in 1 mL of cold PBS, the number of cells was determined in each sample and the cellular suspension was centrifuged again. PBS was discarded, and the pellets were stored covered with 30-µL PBS at –70 °C. The following day, the cells were suspended in 0.5 mL of ice-cold extraction buffer (0.1% Triton-X (Polish Chemical Reagents, Gliwice, Poland) and 0.6% sulfosalicylic acid (Sigma Aldrich) in a potassium phosphate buffer with EDTA (Sigma Aldrich)) and sonicated in icy water for 3 min with vortexing every 30 s. The cells were frozen once again at −80 °C, defrosted on ice and frozen once again. Following the second freeze–thaw cycle, the cells were centrifuged at 1500× g for 5 min at 4 °C, and then, immediately, the supernatant was transferred to prechilled Eppendorf tubes. The samples were divided into two parts: one was used to measure GSH, and the other one was derivatized by an addition of 4 µL of 2-vinylpyridine (diluted 1:10 with phosphate buffer) (Sigma Aldrich, St. Louis, MO, USA) to determine the GSSG content.
(§2) GSH measurements included an addition of 20 µL of the tested sample, blank or GSH standard, 120 µL of the mixture of an equal volume of DTNB solution (2 mg dissolved in 3 mL of phosphate buffer, Sigma Aldrich) and glutathione reductase (10 U in 3 mL of phosphate buffer, Sigma Aldrich, St. Louis, MO, USA) and 30 s of incubation to allow the conversion of GSSG to GSH. The final step included the addition of 60 µL of β-NADPH (2 mg dissolved in 3 mL of phosphate buffer, Sigma Aldrich). The absorbance was read immediately at 415 nm in a microplate reader (Bio-Rad), and the measurements were taken every 30 s for 2 min (6 readings in total). The amount of GSH was calculated on the basis of the calibration curve prepared using GSH (Sigma Aldrich, St. Louis, MO, USA) at concentrations ranging from 0.040 to 2.6 nmol/mL.
(§3) The quantification of GSSG in the test samples was performed according to the same procedure as GSH. The samples treated with 2-VP were incubated for one hour at room temperature, and then, 20 µL of the tested sample was analyzed using the same reagents which were applied in the GSH measurements. The amount of GSSG was calculated on the basis of the calibration curve, prepared using GSSG (Sigma Aldrich) at concentrations of 0.040–2.6 nmol/mL. The results are presented as mean ± SD, n = 6–8 and expressed as nmol per […].

MDA-MB-231 cells [2] = assay: Intracellular GSH and GSSG, MDA-MB-231; type: cell-based, human; settings: MDA-MB-231, 24 h, reference agents: Ascorbic acid 200 µM, AAPH 10 mM
Description: as §1, §2, §3

OCTs [3] = assay: Inhibition of [14C]choline uptake in MCF-7 cells (competitive inhibition assay); type: cell-based, human; settings: mean ± SD (n = 3)
Description: (§4) The following day, after removal of the culture medium, the cells were carefully washed with prewarmed HBSS (Hanks’ balanced salt solution) containing 125 mM NaCl, 4.8 mM KCl, 1.2 mM MgSO4, 1.2 mM KH2PO4, 1.3 mM CaCl2, 5.6 mM glucose and 25 mM HEPES (pH 7.4). […] Then, the cells were washed three times with ice-cold HBSS (500 μL) and were lysed with 250 μL of 0.1-M NaOH in the ice bath, and the lysate was mixed with 1.0 mL of an emulsifier safe cocktail (PerkinElmer, Waltham, MA, USA). The radioactivity was measured by liquid scintillation counting (MicroBeta^2 counter, PerkinElmer, Waltham, MA, USA). The studies were carried out with the use of at least three replicates from the same cell passage.

OCTs [4] = assay: Inhibition of [14C]choline uptake in MDA-MB-231 cells (competitive inhibition assay); type: cell-based, human; settings: mean ± SD (n = 3)
Description: as §4

MCF-7 cells [5] = assay: Cellular uptake of metformin sulfonamides in MCF-7 cells (HPLC); type: in vitro ADME, human
Description: (§5) The uptake of metformin sulfonamides (1–9) in MCF-7 and MDA-MB-231 cells was studied by incubation of the cells with 10−3000 μmol/L of compounds in 250 μL of prewarmed HBSS buffer at 37 °C for 10 min. Subsequently, the cells were then washed three times with 500 μL of ice-cold HBSS and lysed with 250 μL of 0.1-M NaOH. The samples were collected, centrifuged (5 min, 1400 rpm) and the supernatants were analyzed by the HPLC method. The concentration of each compound in the cells was calculated on the basis of the standard curve prepared by spiking known amounts of every compound on the cell layers in 250 μL of 0.1-M NaOH.
(§6) The concentration of the studied sulfonamides (1–9) was assessed using the HPLC system, consisting of an Agilent 1100 binary pump (Agilent Technologies Inc., Wilmington, DE, USA), an 1100 micro-vacuum degasser, an HP 1050 autosampler and an HP 1050 variable wavelength detector (operated at 235 nm). The chromatographic separations of compounds 1–9 were conducted on an Agilent Zorbax SB-C18 analytical column (4.6 mm × 150 mm, 5 μm) using an isocratic elution of water containing 0.1% formic acid (pH ca. 3.0) and acetonitrile containing 0.1% formic acid with a changing ratio, depending on the compound. The analyses were conducted at room temperature (RT). The detailed procedure of chromatographic analysis was described in our previous paper. The studies were conducted in quadruplicates.
(§7) The protein concentrations in representative wells of each plate were assessed using a Bio-Rad protein assay according to the Bradford method (EnVision, PerkinElmer, Inc., Waltham, MA, USA).

MDA-MB-231 cells [6] = assay: Cellular uptake of metformin sulfonamides in MDA-MB-231 cells (HPLC); type: in vitro ADME, human
Description: as §5, §6, §7

MCF-7 cells [7] = assay: Uptake in the presence of OCT and MATE inhibitors, MCF-7 cells; type: in vitro ADME, human; settings: summary from uptake with inhibitors
Description: (§8) The uptake of sulfonamide derivatives of metformin (1–9) in MCF-7 and MDA-MB-231 cells was studied also in the presence of disopyramide, cimetidine (OCT1 and 3 inhibitors), lopinavir (OCT and PMAT inhibitor) and methenamine (MATE and OCT2 inhibitors). The cells were incubated (37 °C, 10 min) with compounds 1–9 at concentrations of 400 and 800 μmol/L and inhibitors (disopyramide, cimetidine, lopinavir or methenamine) in 250 μL of prewarmed HBSS buffer. The protocol of determination of the compound concentration was as described above.

MDA-MB-231 cells [8] = assay: Uptake in the presence of OCT and MATE inhibitors, MDA-MB-231 cells; type: in vitro ADME, human; settings: summary from uptake with inhibitors
Description: as §8

MCF-7 cells [9] = assay: Cell viability WST-1 assay, MCF-7; type: cell-based; settings: Homo sapiens, MCF7; WST-1, 24 h, mean ± SD (n = 6–8); read-out: IC50 inhibition of MCF-7 cells' viability
Description: (§9) The viability of MCF-7 and MDA-MB-231 cells was determined using a colorimetric WST-1 assay (Takara, Takara Bio Europe, Saint-Germain-en-Laye, France). Both cell lines were seeded at a density of 1 × 10^4 per well on 96-well plates and were cultured for 24 h to obtain 70% confluence. The following day, the cells were treated with various concentrations of compounds 1–9 diluted in the cell culture medium ([…]). The cells were incubated with tested compounds or pure medium (control) for 24 h (37 °C, 5% CO2). Afterwards, the cells were washed with 100 μL of culture medium, and then, the reagent dissolved in the medium was added (100 μL). The plates were incubated at the standard condition for 1.5 h, and the absorbance was read at 450 nm using a microplate reader (iMARK, Bio-Rad, Bio-Rad Laboratories Inc., Hercules, CA, USA). […] The results of samples treated with the test compounds were expressed as a percentage of the control samples. The data were presented as mean ± standard deviation (SD), n = 8. IC50 values (the concentration of the tested compound that inhibited cell growth by 50%) were calculated using a concentration-response curve (GraphPad Prism, Software, San Diego, CA, USA).
(§10) The concentrations contributing to the 50% of cell growth inhibition (IC50) were calculated using nonlinear regression analysis (fitting the curve to log (concentration) vs. cellular response).

MDA-MB-231 cells [10] = assay: Cell viability WST-1 assay, MDA-MB-231; type: cell-based; settings: Homo sapiens, MDA-MB-231, 24 h, 3000 µmol/L, WST-1, 24 h; read-out: percentage of viability of MDA-MB-231 cells
Description: as §9, §10

[11] = Eadie-Hofstee analysis, transporter I

O=C1O[C@H]([C@@H](O)CO)C(O)=C1O [Ascorbic acid, reference compound]
GSH (MCF-7 cells [1]): 153.1 ± 5.4 nmol/1 mln Cells
GSH:GSSG Ratio (MCF-7 cells [1]): 25.3
GSSG (MCF-7 cells [1]): 6.0 ± 0.4 nmol/1 mln Cells
GSH (MDA-MB-231 cells [2]): 249.6 ± 20.8 nmol/1 mln Cells
GSH:GSSG Ratio (MDA-MB-231 cells [2]): 13.9
GSSG (MDA-MB-231 cells [2]): 17.9 ± 1.5 nmol/1 mln Cells

CN(C)C(=N)N=C(N)NS(=O)(=O)c1cccc(F)c1 [Compound 8]
IC50 (OCTs [3]): 7195 ± 5.3 µM
IC50 (OCTs [4]): 2284 ± 14 µM
Vmax, transporter I, MCF-7 (MCF-7 cells [5]; [11]): 0.830 ± 0.171 nmol/min/mg
Km (MCF-7 cells [5]; Eadie-Hofstee analysis, transporter I, read-out: Km, transporter I, MCF-7): 2.84 ± 0.778 mM
uptake into MCF-7 cells at higher concentrations (MCF-7 cells [5]; concentrations above 1600 μmol/L): 8–10 nmol/min/mg of protein
Vmax, transporter I, MDA-MB-231 (MDA-MB-231 cells [6]; [11]): 0.049 ± 0.025 nmol/min/mg
Km (MDA-MB-231 cells [6]; Eadie-Hofstee analysis, transporter I, read-out: Km, transporter I, MDA-MB-231): 1.23 ± 1.31 mM
Vmax, transporter II, MDA-MB-231 (MDA-MB-231 cells [6]; Eadie-Hofstee analysis, transporter II): 0.045 ± 0.021 nmol/min/mg
Km (MDA-MB-231 cells [6]; Eadie-Hofstee analysis, transporter II, read-out: Km, transporter II, MDA-MB-231): 3.38 ± 2.13 mM
Vmax MDA-231 cells (Michaelis Menten curves) (MDA-MB-231 cells [6]; Michaelis-Menten curve): 0.126 ± 0.032 nmol/min/mg
Km (MDA-MB-231 cells [6]; Michaelis-Menten curve, read-out: Km MDA-231 cells (Michaelis Menten curves)): 7.4 ± 0.51 mM
transport efficacy (Vmax/Km) in MCF-7 relative to MDA-MB-231 (MDA-MB-231 cells [6]; fold lower in MDA-MB-231 than in MCF-7): approximately 22 fold
interactions with OCT, PMAT and MATE1 transporters, MCF-7 (MCF-7 cells [7]): OCT1
interactions with OCT, PMAT and MATE1 transporters, MDA-MB-231 (MDA-MB-231 cells [8]): OCT1, OCT3
IC50 (MCF-7 cells [9]): 171 ± 13.6 µM
viability at 3000 µM (MDA-MB-231 cells [10]): ~60%
